Measured values reported in patent US8765147B2, “Endophytic fungi from Pteromischum sp. plant, compounds and methods of use” (The Regents of the University of California, priority 2007, dated 2014).

What was measured:
Aspergillus fumigatus = assay: Minimum inhibitory concentration (MIC), 24-well plate, potato dextrose broth; assay type: cell-based
Method: (§1) All plant pathogenic fungi used in the bioassay test system were obtained from Drs. Don Mathre and Nina Zidak of the MSU Department of Plant Sciences. All fungi were grown on potato dextrose agar (PDA) at 23° C. and only freshly transferred cultures (4-7 days old) were used in the fungal bioassay tests.
(§2) Assays were performed in sterile 24-well plates with each well containing 500 μl of potato dextrose broth. The plates were incubated from 48-288 hours at 25 C. The MIC was defined as the minimum concentration of compound resulting in no visible growth of the test organism. The compounds were dissolved in methanol which represented less than 0.5% total methanol in each test well. Several small plugs of agar 3×3×3 mm containing actively growing test fungi were then placed into each well with some wells serving as controls.

Botrytis cinerea = assay: as above; assay type: cell-based
Method: as §1, §2

Fusarium solani = assay: as above; assay type: cell-based
Method: as §1, §2

Geotrichum canididum = assay: as above; assay type: cell-based
Method: as §1, §2

Pythium ultimum = assay: as above; assay type: cell-based
Method: as §1, §2

Rhizoctonia solani = assay: as above; assay type: cell-based
Method: as §1, §2

Sclerotinia sclerotiorum = assay: as above; assay type: cell-based
Method: as §1, §2

Trichoderma virde = assay: as above; assay type: cell-based
Method: as §1, §2

[1] = tested on: IL-2 production by activated CD4+ T cells; assay: Inhibition of IL-2 production by activated CD4+ T cells (flow cytometry); assay type: cell-based; conditions: mouse spleen cells activated with ConA, anti-CD3/CD28 for 4 hours
Method: Total spleen cells were isolated from C57/B 6 mice and then were preactivated with ConA (1 ug/mL, Sigma-Aldrich, St. Louis, Mo.) for 2 days. These cells were then treated for 4 hours with cross-linked Hamster anti-mouse CD3/CD28 (1 ug/mL, BD Bioscience) antibodies in the Bruff's Medium containing 5% fetal bovine serum and 1× brefeldin A. After the activation, cells were fixed and analyzed for IL-2 production in the activated CD4± T cells using APC-conjugated anti-mouse IL-2 and PE-conjugated anti-mouse CD4 antibodies by flow cytometry.

[2] = tested on: human peripheral blood mononuclear cells (PBMCs); assay: Toxicity to peripheral blood mononuclear cells (7-AAD / Annexin V flow cytometry); conditions: 24 and 48 hours of culture, versus DMSO controls; cyclosporin result at or above Bug/ml
Method: The cells (PBMCs) were then stained with 7-AAD and Annexin V directly conjugated to FITC or PE and subjected to flow cytometry. The percentage of necrotic (7-AAD+/Annexin V+), apoptotic (7-AAD-/Annexin V+) and viable (7-AAD-/Annexin V−) cells were calculated using CellQuest software (BD Biosciences). […] Error bars represent standard deviations between triplicate treatment groups.
Blood was collected from healthy adult donors and peripheral blood mononuclear cells (PBMCs) were purified using Histopaque 1077 (Sigma Aldrich, St. Louis, Mo.) according to the manufacturer's instructions. […] Cells were washed twice with PBS followed by staining with Annexin V directly conjugated to PE or FITC and 7-AAD using the Annexin V Apoptosis Detection Kit I (BD Biosciences, San Jose, Calif.) as per the manufacturer's instructions. Cells were then subjected to flow cytometry on a FACS Calibur equipped with an HTS loader (BD Biosciences, San Jose, Calif.). The staining allowed for differentiation among viable, necrotic and apoptotic cells. The studies were repeated at least three times and the variation between the dead cells detected was recorded as a function of concentration over 24 and 48 hour test periods.

cyclic lipopeptide with a molecular mass of 1127.7 produced by C. dematium fungus CR-12; contains Val-Ile-Ser-Ile [Colutellin A, colutellin A]
MIC (Aspergillus fumigatus; after 48 h): 2.4 µg/mL | MIC (Aspergillus fumigatus; after 144 h): >100 µg/mL | MIC (Aspergillus fumigatus; after 288 h): >100 µg/mL | MIC (Botrytis cinerea; after 48 h): 3.6 µg/mL | MIC (Botrytis cinerea; after 144 h): 10.8 µg/mL | MIC (Botrytis cinerea; after 288 h): 10.8 µg/mL | MIC (Fusarium solani; after 48 h): 7.2 µg/mL | MIC (Fusarium solani; after 144 h): >100 µg/mL | MIC (Fusarium solani; after 288 h): >100 µg/mL | MIC (Geotrichum canididum; after 48 h): 3.6 µg/mL | MIC (Geotrichum canididum; after 144 h): >100 µg/mL | MIC (Geotrichum canididum; after 288 h): >100 µg/mL | MIC (Pythium ultimum; after 48 h): >100 µg/mL | MIC (Pythium ultimum; after 144 h): >100 µg/mL | MIC (Pythium ultimum; after 288 h): >100 µg/mL | MIC (Rhizoctonia solani; after 48 h): >100 µg/mL | MIC (Rhizoctonia solani; after 144 h): >100 µg/mL | MIC (Rhizoctonia solani; after 288 h): >100 µg/mL | MIC (Sclerotinia sclerotiorum; after 48 h): 3.6 µg/mL | MIC (Sclerotinia sclerotiorum; after 144 h): 10.8 µg/mL | MIC (Sclerotinia sclerotiorum; after 288 h): 32.4 µg/mL | MIC (Trichoderma virde; after 48 h): >100 µg/mL | MIC (Trichoderma virde; after 144 h): >100 µg/mL | MIC (Trichoderma virde; after 288 h): >100 µg/mL | IC50 [1]: 167 nM | Cytotoxicity on human PBMCs (necrosis and apoptosis) [2]: did not induce significant cell death above the DMSO controls at any concentration tested
